In ChEMBL document CHEMBL5385847, “Design, synthesis and biological evaluation of a new class of 7H-pyrrolo[2,3-d]pyrimidine derivatives as Mps1 inhibitors for the treatment of breast cancer” (Eur J Med Chem, 2023):
Activity calls are given as the source filed them. No cut-off for these calls is given here.

Experiments:
4T1-Luc [1] = test: Induction of DNA damage in mouse 4T1-Luc cells xenografted in BALB/C mouse assessed as increase in gamma-H2AX level at 30 to 60 mg/kg, po qd treated for 15 days by IHC analysis; type: functional, organism-based; details: dose 30-60 mg/kg, time 15.0 day
4T1-Luc [2] = test: Inhibition of cell proliferation in mouse 4T1-Luc cells xenografted in BALB/C mouse assessed as reduction in Ki-67 positive cells at 30 to 60 mg/kg, po qd treated for 15 days by IHC analysis; type: functional, organism-based; details: dose 30-60 mg/kg, time 15.0 day
[3] = Toxicity in BALB/C mouse xenografted with mouse 4T1-Luc cells assessed as histological change in spleen at 30 to 60 mg/kg, po qd treated for 15 days by H and E staining based analysis; type: organism-based; details: in vivo, 360 h, dose 30-60 mg/kg, time 15 day
[4] = Toxicity in BALB/C mouse xenografted with mouse 4T1-Luc cells assessed as histological change in liver at 30 to 60 mg/kg, po qd treated for 15 days by H and E staining based analysis; type: organism-based; details: in vivo, 360 h, dose 30-60 mg/kg, time 15 day
[5] = Toxicity in BALB/C mouse xenografted with mouse 4T1-Luc cells assessed as histological change in heart at 30 to 60 mg/kg, po qd treated for 15 days by H and E staining based analysis; type: organism-based; details: in vivo, 360 h, dose 30-60 mg/kg, time 15 day
4T1-Luc [6] = test: Antitumor activity against mouse 4T1-Luc cells xenografted in BALB/C mouse assessed as delay in tumor growth at 30 to 60 mg/kg, po qd treated for 15 days; type: functional, organism-based; details: dose 30-60 mg/kg, time 15.0 day
[7] = Antitumor activity against mouse 4T1-Luc cells xenografted in BALB/C mouse assessed as reduction in mean tumor weight at 60 mg/kg, po qd treated for 15 days (reference value: 3.56 g); type: functional; details: time 15 day
[8] = Antitumor activity against mouse 4T1-Luc cells xenografted in BALB/C mouse assessed as reduction in mean tumor weight at 30 mg/kg, po qd treated for 15 days (reference value: 3.56 g); type: functional; details: time 15 day
MCF7 [9] = test: Induction of DNA damage in human MCF7 cells assessed as increase in gamma-H2AX level incubated for 2 hrs by Western blot analysis; type: functional, cell-based; details: dose <= 3.0 µM
MCF7 [10] = test: Induction of apoptosis in human MCF7 cells assessed as increase in cleaved caspase-3 level upto 3 uM incubated for 48 hrs by Western blot analysis; type: functional, cell-based
4T1 [11] = test: Induction of apoptosis in 4T1 cells assessed as necrotic cells at 5 uM incubated for 48 hrs by Annexin V-FITC/PI staining based flow cytometry (reference value: 0.20 %); type: functional, Mus musculus
4T1 [12] = test: Induction of apoptosis in 4T1 cells assessed as late apoptotic cells at 5 uM incubated for 48 hrs by Annexin V-FITC/PI staining based flow cytometry (reference value: 1.73 %); type: functional, Mus musculus
4T1 [13] = test: Induction of apoptosis in 4T1 cells assessed as necrotic cells at 1 uM incubated for 48 hrs by Annexin V-FITC/PI staining based flow cytometry (reference value: 0.20 %); type: functional, Mus musculus
4T1 [14] = test: Induction of apoptosis in 4T1 cells assessed as early apoptotic cells at 1 uM incubated for 48 hrs by Annexin V-FITC/PI staining based flow cytometry (reference value: 0.32 %); type: functional, Mus musculus
4T1 [15] = test: Induction of apoptosis in 4T1 cells assessed as late apoptotic cells at 0.5 uM incubated for 48 hrs by Annexin V-FITC/PI staining based flow cytometry (reference value: 1.73 %); type: functional, Mus musculus
MCF7 [16] = test: Induction of apoptosis in human MCF7 cells assessed as necrotic cells at 5 uM incubated for 48 hrs by Annexin V-FITC/PI staining based flow cytometry (reference value: 0.03 %); type: functional
MCF7 [17] = test: Induction of apoptosis in human MCF7 cells assessed as early apoptotic cells at 5 uM incubated for 48 hrs by Annexin V-FITC/PI staining based flow cytometry (reference value: 1.19 %); type: functional
MCF7 [18] = test: Induction of apoptosis in human MCF7 cells assessed as late apoptotic cells at 1 uM incubated for 48 hrs by Annexin V-FITC/PI staining based flow cytometry (reference value: 0.63 %); type: functional
MCF7 [19] = test: Induction of apoptosis in human MCF7 cells assessed as early apoptotic cells at 1 uM incubated for 48 hrs by Annexin V-FITC/PI staining based flow cytometry (reference value: 1.19 %); type: functional
MCF7 [20] = test: Induction of apoptosis in human MCF7 cells assessed as necrotic cells at 0.5 uM incubated for 48 hrs by Annexin V-FITC/PI staining based flow cytometry (reference value: 0.03 %); type: functional
MCF7 [21] = test: Induction of apoptosis in human MCF7 cells assessed as late apoptotic cells at 0.5 uM incubated for 48 hrs by Annexin V-FITC/PI staining based flow cytometry (reference value: 0.63 %); type: functional
MCF7 [22] = test: Induction of cell cycle arrest in human MCF7 cells at G2/M phase assessed as decrease in CDK1 level incubated for 24 hrs by Western blot analysis; type: functional, cell-based; details: dose <= 3.0 µM
4T1 [23] = test: Induction of cell cycle arrest in 4T1 cells at G2/M phase incubated for 24 hrs by Annexin V/PI staining based flow cytometry; type: functional; details: Mus musculus, dose <= 5.0 µM
MCF7 [24] = test: Induction of cell cycle arrest in human MCF7 cells at G2/M phase incubated for 24 hrs by Annexin V/PI staining based flow cytometry; type: functional; details: dose <= 5.0 µM
HEK293 = test: Antiproliferative activity against HEK293 cells assessed as inhibition of cell viability by MTT assay; type: toxicity, cell-based; details: human
HEY = test: Antiproliferative activity against human HEY cells assessed as inhibition of cell viability upto 10 uM incubated for 72 hrs by MTT assay; type: functional, cell-based
MDA-MB-231 [25] = test: Antiproliferative activity against human MDA-MB-231 cells assessed as inhibition of cell viability upto 10 uM incubated for 72 hrs by MTT assay; type: functional, cell-based
ES-2 = test: Antiproliferative activity against human ES2 cells assessed as inhibition of cell viability by MTT assay; type: functional, cell-based
OVCAR-3 = test: Antiproliferative activity against human OVCAR-3 cells assessed as inhibition of cell viability by MTT assay; type: functional, cell-based
MDA-MB-231 [26] = test: Antiproliferative activity against human MDA-MB-231 cells assessed as inhibition of cell viability by MTT assay; type: functional, cell-based
[27] = target: Proto-oncogene tyrosine-protein kinase Src (Homo sapiens) (UniProt P12931); test: Inhibition of human cSRC at 0.1 uM by KINOMEscan assay relative to control
[28] = target: Receptor-type tyrosine-protein kinase FLT3 (Homo sapiens) (UniProt P36888); test: Inhibition of human FLT3 at 0.1 uM by KINOMEscan assay relative to control
[29] = target: Tyrosine-protein kinase JAK2 (Homo sapiens) (UniProt O60674); test: Inhibition of human JAK2 at 0.1 uM by KINOMEscan assay relative to control
[30] = target: Proto-oncogene tyrosine-protein kinase Src (Homo sapiens) (UniProt P12931); test: Inhibition of human cSRC at 1 uM by KINOMEscan assay relative to control
[31] = target: ALK tyrosine kinase receptor (Homo sapiens) (UniProt Q9UM73); test: Inhibition of human ALK at 1 uM by KINOMEscan assay relative to control
Sequence of ALK tyrosine kinase receptor (Homo sapiens) (Q9UM73 19-1620 limits assumed): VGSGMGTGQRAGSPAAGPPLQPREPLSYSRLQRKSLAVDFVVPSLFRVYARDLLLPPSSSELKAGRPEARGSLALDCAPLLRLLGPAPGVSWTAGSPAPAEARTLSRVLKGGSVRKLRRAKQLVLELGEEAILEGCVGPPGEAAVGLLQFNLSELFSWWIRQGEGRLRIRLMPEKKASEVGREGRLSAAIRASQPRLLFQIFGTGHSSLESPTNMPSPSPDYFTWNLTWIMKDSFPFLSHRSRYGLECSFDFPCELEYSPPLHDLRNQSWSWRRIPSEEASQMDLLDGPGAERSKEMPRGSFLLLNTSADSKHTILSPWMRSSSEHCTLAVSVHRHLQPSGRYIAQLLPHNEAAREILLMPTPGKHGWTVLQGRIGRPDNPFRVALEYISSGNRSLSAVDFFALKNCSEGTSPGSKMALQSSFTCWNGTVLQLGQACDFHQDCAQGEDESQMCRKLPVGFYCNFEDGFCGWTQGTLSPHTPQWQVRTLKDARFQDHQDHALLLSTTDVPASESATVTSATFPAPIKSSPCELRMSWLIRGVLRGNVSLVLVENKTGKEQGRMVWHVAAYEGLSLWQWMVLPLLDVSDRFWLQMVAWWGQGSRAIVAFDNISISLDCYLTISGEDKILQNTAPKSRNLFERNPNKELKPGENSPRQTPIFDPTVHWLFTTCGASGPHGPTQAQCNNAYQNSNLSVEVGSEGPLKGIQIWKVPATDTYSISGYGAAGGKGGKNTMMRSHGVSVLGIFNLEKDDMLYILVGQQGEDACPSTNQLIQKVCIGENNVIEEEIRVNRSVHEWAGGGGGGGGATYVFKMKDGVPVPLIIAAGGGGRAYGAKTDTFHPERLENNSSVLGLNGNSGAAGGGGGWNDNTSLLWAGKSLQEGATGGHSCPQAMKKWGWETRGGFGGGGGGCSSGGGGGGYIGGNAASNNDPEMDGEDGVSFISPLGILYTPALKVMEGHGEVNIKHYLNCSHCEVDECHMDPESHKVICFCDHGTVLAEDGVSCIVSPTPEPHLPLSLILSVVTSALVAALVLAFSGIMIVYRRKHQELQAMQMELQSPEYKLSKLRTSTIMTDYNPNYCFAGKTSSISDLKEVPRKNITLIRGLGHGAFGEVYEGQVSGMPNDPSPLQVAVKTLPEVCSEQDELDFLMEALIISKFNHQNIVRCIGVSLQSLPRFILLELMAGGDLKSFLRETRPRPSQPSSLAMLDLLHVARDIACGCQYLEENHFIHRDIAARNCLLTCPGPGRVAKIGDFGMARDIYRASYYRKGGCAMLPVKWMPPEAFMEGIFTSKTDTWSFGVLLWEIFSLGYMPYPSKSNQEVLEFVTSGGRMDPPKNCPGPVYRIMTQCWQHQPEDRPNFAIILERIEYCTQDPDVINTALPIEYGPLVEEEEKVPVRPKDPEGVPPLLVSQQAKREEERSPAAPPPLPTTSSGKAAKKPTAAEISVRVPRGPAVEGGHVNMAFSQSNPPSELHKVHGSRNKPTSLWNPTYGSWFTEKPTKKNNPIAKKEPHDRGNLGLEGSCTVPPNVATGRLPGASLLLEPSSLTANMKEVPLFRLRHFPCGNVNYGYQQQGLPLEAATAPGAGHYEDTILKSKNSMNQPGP

Sequence of Proto-oncogene tyrosine-protein kinase Src (Homo sapiens) (P12931 2-536 limits assumed): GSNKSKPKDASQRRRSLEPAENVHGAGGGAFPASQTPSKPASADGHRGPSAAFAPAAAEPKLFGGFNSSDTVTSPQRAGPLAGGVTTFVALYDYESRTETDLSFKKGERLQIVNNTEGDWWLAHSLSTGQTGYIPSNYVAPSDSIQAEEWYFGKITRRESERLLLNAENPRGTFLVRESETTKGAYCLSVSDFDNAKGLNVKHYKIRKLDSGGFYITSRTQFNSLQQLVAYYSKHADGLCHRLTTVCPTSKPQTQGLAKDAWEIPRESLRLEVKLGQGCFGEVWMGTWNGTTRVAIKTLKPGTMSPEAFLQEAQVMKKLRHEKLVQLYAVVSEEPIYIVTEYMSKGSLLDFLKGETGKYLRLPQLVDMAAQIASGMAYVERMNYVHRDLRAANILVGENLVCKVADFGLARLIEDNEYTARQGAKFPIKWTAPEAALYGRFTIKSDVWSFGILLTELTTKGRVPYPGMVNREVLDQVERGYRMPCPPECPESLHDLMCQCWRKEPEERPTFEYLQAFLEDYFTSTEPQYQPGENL
Sequence of Tyrosine-protein kinase JAK2 (Homo sapiens) (O60674 whole entry): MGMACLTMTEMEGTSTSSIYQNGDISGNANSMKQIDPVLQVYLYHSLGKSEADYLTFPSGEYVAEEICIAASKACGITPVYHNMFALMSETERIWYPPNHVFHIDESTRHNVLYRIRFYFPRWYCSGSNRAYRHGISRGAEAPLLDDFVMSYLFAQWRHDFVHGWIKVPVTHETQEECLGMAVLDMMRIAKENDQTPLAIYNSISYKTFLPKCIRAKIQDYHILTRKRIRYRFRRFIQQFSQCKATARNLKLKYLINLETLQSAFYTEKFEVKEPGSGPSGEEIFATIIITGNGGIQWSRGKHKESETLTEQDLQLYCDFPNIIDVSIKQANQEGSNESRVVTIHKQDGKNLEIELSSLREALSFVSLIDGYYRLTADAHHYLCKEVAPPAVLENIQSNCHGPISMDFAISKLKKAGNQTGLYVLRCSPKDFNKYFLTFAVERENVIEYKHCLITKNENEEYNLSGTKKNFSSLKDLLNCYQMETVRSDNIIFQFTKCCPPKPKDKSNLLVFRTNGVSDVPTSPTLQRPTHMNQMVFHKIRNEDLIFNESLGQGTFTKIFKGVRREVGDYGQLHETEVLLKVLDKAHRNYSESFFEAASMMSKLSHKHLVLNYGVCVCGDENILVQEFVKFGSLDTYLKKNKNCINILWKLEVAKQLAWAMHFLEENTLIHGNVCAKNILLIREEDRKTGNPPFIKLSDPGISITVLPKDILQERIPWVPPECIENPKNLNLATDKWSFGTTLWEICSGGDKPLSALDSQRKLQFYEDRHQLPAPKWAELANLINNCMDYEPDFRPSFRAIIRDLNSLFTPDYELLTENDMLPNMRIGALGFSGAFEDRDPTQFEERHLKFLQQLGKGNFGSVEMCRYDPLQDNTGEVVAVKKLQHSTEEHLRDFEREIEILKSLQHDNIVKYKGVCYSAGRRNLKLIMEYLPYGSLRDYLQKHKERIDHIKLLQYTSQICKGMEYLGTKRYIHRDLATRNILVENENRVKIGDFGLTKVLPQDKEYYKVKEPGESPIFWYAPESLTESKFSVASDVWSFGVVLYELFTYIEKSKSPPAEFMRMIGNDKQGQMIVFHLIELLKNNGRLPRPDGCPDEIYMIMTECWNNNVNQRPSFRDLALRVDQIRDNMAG
Sequence of Receptor-type tyrosine-protein kinase FLT3 (Homo sapiens) (P36888 whole entry): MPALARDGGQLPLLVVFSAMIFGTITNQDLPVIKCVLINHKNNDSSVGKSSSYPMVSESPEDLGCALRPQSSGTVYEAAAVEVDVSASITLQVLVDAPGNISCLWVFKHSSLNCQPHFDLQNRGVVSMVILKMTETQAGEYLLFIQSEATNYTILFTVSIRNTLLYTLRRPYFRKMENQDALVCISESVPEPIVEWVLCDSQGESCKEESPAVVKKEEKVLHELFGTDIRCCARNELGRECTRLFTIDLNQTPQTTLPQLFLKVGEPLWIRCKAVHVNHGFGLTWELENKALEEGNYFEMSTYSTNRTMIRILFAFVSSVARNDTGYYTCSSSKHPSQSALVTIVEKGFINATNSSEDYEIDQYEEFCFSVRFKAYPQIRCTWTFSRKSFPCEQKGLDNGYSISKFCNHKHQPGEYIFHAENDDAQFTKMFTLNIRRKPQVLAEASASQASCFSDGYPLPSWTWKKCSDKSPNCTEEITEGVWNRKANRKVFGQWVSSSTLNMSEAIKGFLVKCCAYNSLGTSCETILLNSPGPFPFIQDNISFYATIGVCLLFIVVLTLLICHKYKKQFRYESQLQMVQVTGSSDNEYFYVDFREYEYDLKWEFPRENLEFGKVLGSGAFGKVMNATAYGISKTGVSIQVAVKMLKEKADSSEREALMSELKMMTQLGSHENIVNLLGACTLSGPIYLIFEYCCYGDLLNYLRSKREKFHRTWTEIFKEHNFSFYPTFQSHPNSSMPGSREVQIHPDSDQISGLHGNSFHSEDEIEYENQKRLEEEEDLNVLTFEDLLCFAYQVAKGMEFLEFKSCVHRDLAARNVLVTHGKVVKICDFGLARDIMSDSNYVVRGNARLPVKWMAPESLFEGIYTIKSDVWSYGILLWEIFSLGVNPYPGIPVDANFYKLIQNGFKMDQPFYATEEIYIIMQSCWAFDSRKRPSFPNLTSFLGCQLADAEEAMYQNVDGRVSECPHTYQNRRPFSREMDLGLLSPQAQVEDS

IC50 (OVCAR-3): > 3000 nM
IC50 (MDA-MB-231 [26]): 2680 nM
inhibition [27]: 52%
inhibition [28]: 86%
inhibition [29]: 65%
inhibition [30]: 96%
inhibition [31]: 91%
Compound: CN1CCN(c2ccc(Nc3nc(-n4nc(N)c5ccccc54)c4cc[nH]c4n3)cc2)CC1
Activity (4T1-Luc [1]): Active
inhibition (4T1-Luc [2]): Active
Activity [3]: Non-Toxic
Activity [4]: Non-Toxic
Activity [5]: Non-Toxic
Activity (4T1-Luc [6]): Active
Activity [7]: 0.97 g
Activity [8]: 1.4 g
Activity (MCF7 [9]): Dose-Dependent Effect
Activity (MCF7 [10]): Active
Activity (4T1 [11]): 0.32%
Activity (4T1 [12]): 20.66%
Activity (4T1 [13]): 0.6%
Activity (4T1 [14]): 1.61%
Activity (4T1 [15]): 5.41%
Activity (MCF7 [16]): 0.38%
Activity (MCF7 [17]): 2.3%
Activity (MCF7 [18]): 14.31%
Activity (MCF7 [19]): 6.54%
Activity (MCF7 [20]): 0.17%
Activity (MCF7 [21]): 4.51%
Activity (MCF7 [22]): Dose-Dependent Effect
Activity (4T1 [23]): Dose-Dependent Effect
Activity (MCF7 [24]): Dose-Dependent Effect
Activity (HEK293): Non-Toxic
inhibition (HEY): Active
inhibition (MDA-MB-231 [25]): Active
IC50 (ES-2): > 3000 nM
